Reference: US20230321101A1, “METHODS AND USES OF HALOFUGINONE” (The Regents of the University of California, priority 2020, published 2023)

System: Huh 7.5 cells
Experiment: Cell viability of Huh 7.5 cells, alamarBlue
Assay type: cell-based, human
Details: Huh 7.5, 24 hr
Experimental: FIG. 28. Cell viability in Huh 7.5 cells after treatment for 24 hours with Halofuginone. Cell viability was measured using alamarBlue staining in HuH 7.5 cells at indicated concentrations of halofuginone after a 24 hr treatment (n=3 per dose). Data shown as mean±S.D. Statistics performed by 1-way ANOVA (ns: p>0.05, *:p≤0.01).
Cell Culture. Huh-7.5 cells^1 were generously provided by Charles M. Rice (Rockefeller University, New York, NY). Hep3B, BHK-15 and Calu-3 cells were from ATCC and were grown in DMEM medium containing 10% % fetal bovine serum, and 100 IU/ml of penicillin, 100 μg/ml of streptomycin sulfate and nonessential amino acids. BHK-15 were grown in Modified Eagle's supplemented with 10% fetal bovine serum and nonessential amino acids (Gibco, #11140-050). Hep3B, A375 and Vero E6 cells were from ATCC. The Hep3B cells carrying mutations in HS biosynthetic enzymes was derived from the parent ATCC Hep3B stock, and have been described previously^2. All cells were supplemented with 10% FBS, 100 IU/ml of penicillin and 100 μg/ml of streptomycin sulfate and grown under an atmosphere of 5% CO2 and 95% air. Cells were passaged before 80% confluence was reached and seeded as explained for the individual assays. Cell viability was measured using LDH leakage (Promega) or alamarBleu (Thermo Fisher).

## O=C(CC1NCCCC1O)Cn1cnc2cc(Br)c(Cl)cc2c1=O (racemic) [halofuginone]
  cell viability: without affecting cell viability
